Results from patent publication US20100092443A1, “NOVEL COMBINATIONS OF NITROGENATED HETEROCYCLIC ANTIBACTERIAL COMPOUNDS WITH OTHER ANTIBACTERIAL COMPOUNDS AND THE USE OF SAME AS DRUGS” (priority 2008, published 2010).
Values after ≈ are worked out from the molar mass of the structure shown. Like-named read-outs stand apart in the source and are kept apart here.

Tests used:
Type in all cases: cell-based
[1] = system: Pseudomonas aeruginosa; test: MIC, dilutions in liquid medium, alone and combined with NXL105; settings: Pseudomonas aeruginosa
Procedure: (§1) In vitro activity, method of dilutions in liquid medium:
A series of test 96-well microtiter plates are prepared in which the same quantity of sterile nutritive medium is distributed. Increasing quantities of the compound to be studied, namely the antibacterial compound alone and the inventive combination with the compound of formula (I) of example 1, are distributed in each plate in the respective proportions 2:1 and 4:1, and then each plate is inoculated with a bacterial strain of Pseudomonas aeruginosa. After 24 h of incubation in a 37° C. oven, growth inhibition is evaluated by transillumination, which makes it possible to determine the minimum inhibitory concentrations (MICS) expressed in μg/ml.

[2] = system: E. coli; test: microbe, parasite or virus in culture; settings: Escherichia coli
Procedure: as §1
(§2) A series of test 96-well microtiter plates are prepared in which the same quantity of sterile nutritive medium is distributed. […] After 24 h of incubation in a 37° C. oven, growth inhibition is evaluated by transillumination, which makes it possible to determine the minimum inhibitory concentrations (MICS) expressed in μg/ml.

[3] = system: E. cloacae; test: MIC, dilutions in liquid medium, alone and combined with NXL105; settings: Enterobacter cloacae
Procedure: as §1, §2

[4] = system: K. pneumoniae; test: as above
Procedure: as §1, §2

[5] = system: K. oxytoca; test: as above; settings: Klebsiella oxytoca, read-out: MIC
[6] = system: C. freundii; test: as above; settings: Citrobacter freundii

C[C@@H](O)[C@H]1C(=O)N2C(C(=O)O)=C(S[C@@H]3CN[C@H](C(=O)N(C)C)C3)[C@H](C)[C@H]12 [Meropenem]
MIC ([1]; ATCC27853, P. aeruginosa ATCC 27853): 1 µg/mL
MIC ([1]; P. aeruginosa 391HG2): > 32 µg/mL
MIC ([1]; P. aeruginosa 391HG21): > 32 µg/mL
MIC ([1]; P. aeruginosa 391HG38): 32 µg/mL
MIC ([1]; P. aeruginosa 391HG39): 0.06 µg/mL
MIC ([1]; P. aeruginosa 391HG58): 32 µg/mL
MIC ([1]; P. aeruginosa 391HG118): 8 µg/mL
MIC ([1]; P. aeruginosa 391HG123): 32 µg/mL
MIC ([1]; P. aeruginosa 391HG158): 32 µg/mL
MIC ([1]; P. aeruginosa 391HG271): > 32 µg/mL
MIC ([1]; P. aeruginosa 391HG329): > 32 µg/mL
MIC ([1]; P. aeruginosa 391K767): 2 µg/mL
MIC ([1]; P. aeruginosa 391K1455): 4 µg/mL
MIC ([1]; P. aeruginosa 391K1523): 2 µg/mL
MIC ([1]; P. aeruginosa 391K1525): 2 µg/mL
MIC ([1]; P. aeruginosa 391K1536): 2 µg/mL
MIC ([1]; P. aeruginosa 391K2376): 2 µg/mL
MIC ([1]; P. aeruginosa 391K2379): 4 µg/mL
MIC ([1]; P. aeruginosa 391K2415): 2 µg/mL
MIC ([1]; P. aeruginosa 391KB9): 4 µg/mL
MIC ([1]; P. aeruginosa 391KB14): 8 µg/mL
MIC ([1]; P. aeruginosa 391KB21): 8 µg/mL
MIC ([1]; P. aeruginosa 391KB33): 4 µg/mL
MIC ([1]; P. aeruginosa 391KB38): 8 µg/mL
MIC ([1]; P. aeruginosa 391KB62): > 32 µg/mL
MIC ([1]; P. aeruginosa 391KB68): 1 µg/mL
MIC ([1]; P. aeruginosa 391KB90): 16 µg/mL
MIC ([1]; P. aeruginosa 391KB91): 16 µg/mL
MIC ([1]; P. aeruginosa 391KB99): 16 µg/mL
MIC ([1]; P. aeruginosa 391KB103): 8 µg/mL
MIC ([1]; P. aeruginosa 391KB105): 4 µg/mL
MIC ([1]; P. aeruginosa 391KB106): 4 µg/mL
MIC ([1]; P. aeruginosa 391KB107): 32 µg/mL
MIC ([1]; P. aeruginosa 391KB114): 16 µg/mL
MIC ([1]; P. aeruginosa 391KB127): 2 µg/mL
MIC ([1]; P. aeruginosa 391KB135): > 32 µg/mL
MIC ([1]; P. aeruginosa 391KB136): > 32 µg/mL
MIC ([1]; P. aeruginosa 391KB137): > 32 µg/mL
MIC ([1]; P. aeruginosa 391KB138): > 32 µg/mL
MIC ([1]; P. aeruginosa 391KB139): > 32 µg/mL
MIC ([1]; P. aeruginosa 391KB140): 16 µg/mL
MIC ([1]; P. aeruginosa 391KB141): > 32 µg/mL
MIC ([1]; P. aeruginosa 391KB142): > 32 µg/mL
MIC ([1]; P. aeruginosa 391KB143): > 32 µg/mL
MIC ([1]; P. aeruginosa 391KB144): > 32 µg/mL
MIC ([1]; P. aeruginosa 391QBR2): > 32 µg/mL
MIC ([1]; P. aeruginosa 391QBR3): 32 µg/mL
MIC ([1]; P. aeruginosa 391QBR4): 16 µg/mL
MIC ([1]; P. aeruginosa 391QBR5): 32 µg/mL
MIC ([1]; P. aeruginosa 391QBR7): 32 µg/mL
MIC ([1]; P. aeruginosa 391QBR8): 16 µg/mL
MIC ([1]; P. aeruginosa 391QBR9): 16 µg/mL
MIC ([1]; P. aeruginosa 391QBR10): 4 µg/mL
MIC ([1]; P. aeruginosa C3719): > 32 µg/mL
MIC ([1]; P. aeruginosa PA2192): 8 µg/mL
MIC ([2]; 24 h, E. coli 2138, KPC-2 + TEM-1): 8 µg/mL
MIC ([2]; 24 h, E. coli (no alias), CTX-M-15 + TEM-1 + OXA-1): ≤ 0.03 µg/mL
MIC ([2]; 24 h, E. coli IND, VEB-1 + CMY-2): 0.06 µg/mL
MIC ([2]; 24 h, E. coli TN06, CTX-M-2 + TEM-1): 0.06 µg/mL
MIC ([2]; 24 h, E. coli TN13, CTX-M-14 + CMY-2 + TEM-1): 0.25 µg/mL
MIC ([2]; 24 h, E. coli Tunisie clone E4, CTX-M-16 + TEM-1): 0.125 µg/mL
MIC ([2]; E. coli (no alias), Cephalosporinase, read-out: MIC): 0.06 µg/mL (≈ 0.156 µM)
MIC ([2]; E. coli (no alias), SHV-4): ≤ 0.03 µg/mL
MIC ([2]; E. coli (no alias), TEM-3): ≤ 0.03 µg/mL
MIC [3]: 0.125 µg/mL
MIC ([3]; 24 h, E. cloacae 7506, KPC-2 + TEM-1 + KLUC-2, read-out: MIC): 16 µg/mL
MIC ([3]; E. cloacae (no alias), AmpC, read-out: MIC): 0.5 µg/mL
MIC ([4]; K. pneumoniae 236, SHV-5 + TEM-10): 0.125 µg/mL
MIC ([4]; K. pneumoniae 444, SHV-5 + TEM-2 + PER): 0.125 µg/mL
MIC ([4]; K. pneumoniae 1734, FOX-3 + TEM-1): 0.125 µg/mL
MIC ([4]; K. pneumoniae 9701, CMY-4 + TEM-1): 0.125 µg/mL
MIC ([4]; K. pneumoniae Tunisie clone K1, CTX-M-16 + OXA-1): 0.125 µg/mL
MIC ([4]; K. pneumoniae Tunisie clone K4, CTX-M-15 + TEM-1 + OXA-1): 0.125 µg/mL
MIC ([4]; Klebsiella pneumoniae): 0.125 µg/mL
MIC ([4]; Klebsiella pneumoniae, 24 h, K. pneumoniae 60, SHV-2 + TEM-2 + PER, read-out: MIC): 0.06 µg/mL
MIC ([4]; Klebsiella pneumoniae, 24 h, K. pneumoniae 157, SHV-5 + TEM-26, read-out: MIC): ≤ 0.03 µg/mL
MIC ([4]; Klebsiella pneumoniae, 24 h, K. pneumoniae 181, SHV-5 + TEM-10, read-out: MIC): 4 µg/mL
MIC ([4]; Klebsiella pneumoniae, 24 h, K. pneumoniae 238, SHV-2 + TEM-12 + CTX-M-2, read-out: MIC): ≤ 0.03 µg/mL
MIC ([4]; Klebsiella pneumoniae, 24 h, K. pneumoniae 253, SHV-2 + TEM-12 + CTX-M-2, read-out: MIC): 0.06 µg/mL
MIC ([4]; Klebsiella pneumoniae, 24 h, K. pneumoniae 427, SHV-1 + TEM-1B + CTX-M-3, read-out: MIC): 0.06 µg/mL
MIC ([4]; Klebsiella pneumoniae, 24 h, K. pneumoniae 441, SHV-1 + TEM-2 + PER, read-out: MIC): 0.06 µg/mL
MIC ([4]; Klebsiella pneumoniae, 24 h, K. pneumoniae 449, SHV-1 + TEM-2 + PER, read-out: MIC): ≤ 0.03 µg/mL
MIC ([4]; Klebsiella pneumoniae, 24 h, K. pneumoniae 465, TEM-1B + CTX-M-2, read-out: MIC): 0.25 µg/mL
MIC ([4]; Klebsiella pneumoniae, 24 h, K. pneumoniae KOL, MOX-2 + SHV-5 + TEM-1, read-out: MIC): 0.06 µg/mL
MIC ([4]; Klebsiella pneumoniae, 24 h, K. pneumoniae Patient 1BHR, VIM-4 + CTX-M-15 = CMY-4 + TEM-1, read-out: MIC): 16 µg/mL
MIC ([4]; Klebsiella pneumoniae, 24 h, K. pneumoniae Patient F, VIM-1 + SHV-5, read-out: MIC): > 32 µg/mL
MIC ([4]; Klebsiella pneumoniae, 24 h, K. pneumoniae SLK54, ACC-1 + TEM-1, read-out: MIC): 0.06 µg/mL
MIC ([4]; Klebsiella pneumoniae, 24 h, K. pneumoniae TN58467, DHA-1 + SHV-2a + TEM-1, read-out: MIC): 0.25 µg/mL
MIC ([4]; Klebsiella pneumoniae, ATCC700603, K. pneumoniae ATCC 700603, SHV-18, read-out: MIC): 0.06 µg/mL
MIC ([4]; Klebsiella pneumoniae, K. pneumoniae 26, SHV-5, read-out: MIC): ≤ 0.03 µg/mL
MIC ([4]; Klebsiella pneumoniae, K. pneumoniae CL5761, KPC-3, read-out: MIC): > 32 µg/mL
MIC ([4]; Klebsiella pneumoniae, K. pneumoniae CL5762, KPC-3, read-out: MIC): > 32 µg/mL
MIC ([4]; Klebsiella pneumoniae, K. pneumoniae CL5763, KPC-3, read-out: MIC): > 32 µg/mL
MIC ([4]; Klebsiella pneumoniae, K. pneumoniae VA8, KPC-3, read-out: MIC): ≤ 0.03 µg/mL
MIC ([4]; Klebsiella pneumoniae, K. pneumoniae VAKP, KPC-2, read-out: MIC): 32 µg/mL
MIC ([4]; Klebsiella pneumoniae, K. pneumoniae YC, KPC-2, read-out: MIC): 32 µg/mL
MIC ([5]; K. oxytoca 1431, TEM-129): 0.06 µg/mL
MIC ([5]; K. oxytoca 16944, OXY-2, TEM-1): 0.06 µg/mL
MIC [6]: 0.125 µg/mL
MIC ([6]; 24 h, C. freundii (no alias), AmpC + TEM-1, read-out: MIC): 0.06 µg/mL
MIC ([6]; C. freundii (no alias, table row r121), AmpC, read-out: MIC): 0.25 µg/mL
MIC ([6]; C. freundii (no alias, table row r122), AmpC, read-out: MIC): 0.06 µg/mL
MIC ([6]; C. freundii (no alias, table row r125), AmpC, read-out: MIC): 0.06 µg/mL
